From US20260356835A1, “BICYCLIC HETEROARYL COMPOUNDS” (QuantX Biosciences US, Inc., priority 2023, published 2026) come the findings set out here.

The subject of one test is Kuramochi cells. The experiment in a line: Cellular Viability Assay (5 day Kuramochi cell viability, CellTiter-Glo). Format: cell-based. The following applies: 5 days, 37 °C, growth inhibition relative to Day 0 (T0) and DMSO. As for the experimental part:
Kuramochi cells were seeded at a density of 1000 cells per well in a 384-well, white, sterile, clear bottom plate, using a Multidrop liquid dispenser and incubated for 24 hours at 37 °C in a 5% CO2 humidified environment. 24 hours later, compounds were added starting at a top dose of 10 μM for a 9-point dose response curve at a 1:3 dilution using an iDOT HT liquid handler and incubated for 5 days at 37 °C in a 5% CO2 humidified environment. After 5 days and at Day 0, plates were incubated at room temperature for 30 minutes followed by the addition of 30 μl of CellTiter-Glo Reagent. Plates were then mixed for 10 minutes on an orbital shaker followed by incubation at room temperature for 20 minutes. Luminescence was then read using the Envision plate reader. Percent Growth Inhibition was then calculated using the following equation: Percent Growth Inhibition normalized=100−(compound signal−T0)/(max signal−T0)*100%, where Max Signal refers to the DMSO only treated cells and T0 refers to the Day0 viability measurement. Growth Inhibition 50 was then calculated using the following equation: Y=Bottom+(Top−Bottom)/(1+10^((Log IC50−X)*hillslope)).
For cell activity, bracket is denoted as: A<1 uM; 1 uM<B<5 uM; C>5 uM.

Test [1] deals with T1, N-his8-TEV-hPARG (389-976) (Homo sapiens, UniProt Q86W56).
T1 construct: N-his8-TEV-hPARG (389-976); His8 (N); TEV protease cleavage site (N); made in house; host or cells: E. coli BL21(DE3)
The experiment in a line: PARG Biochemical Enzymatic Assay (PARG inhibition HTRF assay). Particulars: 62.5 pM PARG, 5 nM Biotin-Parylated PARP1 substrate, 60 minutes preincubation, 10 minutes reaction at 23 °C. As to the method:
PARG Biochemical Enzymatic Assay
TEV-His8-PolyADP-Ribose Polymerase 1 (379-1014) (PARP1) and N-his8-TEV-hPARG (389-976) were used to transform BL21(DE3) competent cells followed by growth for 1 hour at 37 °C and plating on Kanamycin resistant agar plates. A single colony was then inoculated into 1 ml of Luria Broth and expansion into a 1 liter scale for growth at 37 °C for 3 hours. Expression was induced via 0.2 mM IPTG induction for 20 hours at 16 °C in BL21(DE3) E. coli. Purification was then performed using a Nickel column, size exclusion chromatography and HPLC analysis.
For substrate preparation, […] nicked DNA and 2 μM PARP1 protein were mixed for 10 minutes at 25 °C 10 μM biotin-NAD+ and 100 μM NAD+ were then added and incubated for 60 minutes at 30 °C to yield PARylated PARP1 substrate.
For compound screening, compounds were serially diluted to a 3× final concentration in assay buffer (Tris pH7.5 50 mM, KCl 50 mM, Tween-20 0.01%, BSA 0.1 mg/ml, EDTA 3 mM, EGTA 0.4 mM, DTT 1 mM) containing 1% DMSO. A top concentration of 1.5 μM for a 10-point dose response curve using a 1:3 dilution curve was used. 2.5×PARG (156.25 pM working concentration, 62.5 pM final concentration) was prepared in assay buffer and 4 ul added to a 384 well assay plate containing 2 μl of serially diluted compound. The plate was then centrifuged for 10 seconds and incubated for 60 minutes at 23 °C. 4 μl of 2.5× Biotin-Parylated PARP1 (12.5 nM working concentration, 5 nM final concentration) was then added to the plate and incubated for 10 minutes at 23 °C. 4 μl of […] Detection reagent containing 0.44 μg/ml of Streptavidin-Europium cryptate and 4 μg/ml of anti-6His-XL665 monoclonal antibody was added to the plate and incubated for 60 minutes at 23 °C. The Homogeneous Time Resolved Fluorescent (HTRF) signal was then measured on an Envision plate reader using and excitation wavelength of 337 nm and emission wavelengths of 615 nm and 665 nm. Normalized percent inhibition was then calculated using the following equation: % Inhibition normalized=(compound signal-min signal)/(max signal-min signal)*100%, where Maximum signal was substrate only wells and Minimum signal was enzyme and substrate well. IC50 was calculated by fitting % Inhibition values and log of compound concentrations to nonlinear regression (log(inhibitor) vs. response—Variable slope(four parameters)) with GraphPad 9.4.1
For biochemical activity, bracket is denoted as: A<100 nM; 100 nM<B<500 nM; C>500 nM

T1 sequence (Q86W56 389-976): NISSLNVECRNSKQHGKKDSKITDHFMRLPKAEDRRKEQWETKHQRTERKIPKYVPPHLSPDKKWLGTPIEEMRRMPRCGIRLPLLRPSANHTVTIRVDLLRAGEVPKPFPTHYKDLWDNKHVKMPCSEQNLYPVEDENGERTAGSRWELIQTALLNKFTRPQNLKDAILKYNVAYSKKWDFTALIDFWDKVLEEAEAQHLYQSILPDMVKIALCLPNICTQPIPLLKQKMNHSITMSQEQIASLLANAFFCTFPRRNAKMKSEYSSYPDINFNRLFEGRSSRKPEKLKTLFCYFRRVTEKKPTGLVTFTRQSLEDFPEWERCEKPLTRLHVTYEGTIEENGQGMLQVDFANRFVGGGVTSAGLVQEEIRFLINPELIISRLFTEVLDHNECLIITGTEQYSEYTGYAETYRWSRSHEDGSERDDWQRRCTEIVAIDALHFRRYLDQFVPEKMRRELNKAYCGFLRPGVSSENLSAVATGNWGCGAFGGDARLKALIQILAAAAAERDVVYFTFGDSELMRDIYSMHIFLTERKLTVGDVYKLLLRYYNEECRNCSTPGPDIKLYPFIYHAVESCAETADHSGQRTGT

Turning to `O=S(=O)(NC1(C(F)(F)F)CC1)c1cc(N2CCC3(CC2)COC3)n2ncc(-c3nnc(C(F)F)s3)c2c1` [Example 13, 3-[5-(difluoromethyl)-1,3,4-thiadiazol-2-yl]-7-(2-oxa-7-azaspiro[3.5]nonan-7-yl)-N-[1-(trifluoromethyl)cyclopropyl]pyrazolo[1,5-a]pyridine-5-sulfonamide], the 50% inhibitory concentration (IC50) (as a rule, the concentration that inhibits the measured activity by half) was in the range of 1 to 5 µM with Kuramochi cells and 0.1 to 0.5 µM in test [1].

Consider `CC1(NS(=O)(=O)c2cc(N3CCC4(CC3)COC4)n3ncc(-c4nnc(C(F)(F)F)s4)c3c2)CC1` [Example 14, N-(1-methylcyclopropyl)-7-(2-oxa-7-azaspiro[3.5]nonan-7-yl)-3-(5-(trifluoromethyl)-1,3,4-thiadiazol-2-yl)pyrazolo[1,5-a]pyridine-5-sulfonamide], for which the values for the IC50 (with Kuramochi cells; in test [1]) were less than 1 µM and less than 0.1 µM, respectively.

As for `CC1(NS(=O)(=O)c2cc(N3CCC4(CC3)COC4)n3ncc(-c4nc(C(F)F)cs4)c3c2)CC1` [Example 15, 3-(4-(difluoromethyl)thiazol-2-yl)-N-(1-methylcyclopropyl)-7-(2-oxa-7-azaspiro[3.5]nonan-7-yl)pyrazolo[1,5-a]pyridine-5-sulfonamide], the figures for the 50% inhibitory concentration (IC50) (in the test with Kuramochi cells; in test [1]) were less than 1 µM and less than 0.1 µM, respectively.

With `Cn1ccnc1N1CCN(c2cc(S(=O)(=O)NC3(C#N)CC3)cc3c(-c4nnc(C(F)F)s4)cnn23)CC1` [Example 16, N-(1-cyanocyclopropyl)-3-(5-(difluoromethyl)-1,3,4-thiadiazol-2-yl)-7-(4-(1-methyl-1H-imidazol-2-yl)piperazin-1-yl)pyrazolo[1,5-a]pyridine-5-sulfonamide], the IC50 is 1 to 5 µM in the test on Kuramochi cells and less than 0.1 µM in test [1].

Turning to `CC(C)OC(=O)N1CCN(c2cc(S(=O)(=O)NC3(C#N)CC3)cc3c(-c4nnc(C(F)F)s4)cnn23)CC1` [Example 17, Isopropyl 4-(5-(N-(1-cyanocyclopropyl)sulfamoyl)-3-(5-(difluoromethyl)-1,3,4-thiadiazol-2-yl)pyrazolo[1,5-a]pyridin-7-yl)piperazine-1-carboxylate], the IC50 with Kuramochi cells was less than 1 µM; in test [1] it was less than 0.1 µM.

Regarding `CCCS(=O)(=O)N1CCN(c2cc(S(=O)(=O)NC3(C#N)CC3)cc3c(-c4nnc(C(F)F)s4)cnn23)CC1` [Example 18, N-(1-cyanocyclopropyl)-3-(5-(difluoromethyl)-1,3,4-thiadiazol-2-yl)-7-(4-(propylsulfonyl)piperazin-1-yl)pyrazolo[1,5-a]pyridine-5-sulfonamide], the 50% inhibitory concentration (IC50) in the test with Kuramochi cells is less than 1 µM; in test [1], less than 0.1 µM.

In the case of `CC1(C(=O)N2CCN(c3cc(S(=O)(=O)NC4(C#N)CC4)cc4c(-c5nnc(C(F)F)s5)cnn34)CC2)CCC1` [Example 19, N-(1-cyanocyclopropyl)-3-[5-(difluoromethyl)-1,3,4-thiadiazol-2-yl]-7-[4-(1-methylcyclobutanecarbonyl)piperazin-1-yl]pyrazolo[1,5-a]pyridine-5-sulfonamide], the IC50 in the test on Kuramochi cells was less than 1 µM; in test [1], less than 0.1 µM.

Consider `Cc1nnc(N2CCN(c3cc(S(=O)(=O)NC4(C#N)CC4)cc4c(-c5nnc(C(F)F)s5)cnn34)CC2)s1` [Example 20, N-(1-cyanocyclopropyl)-3-[5-(difluoromethyl)-1,3,4-thiadiazol-2-yl]-7-[4-(5-methyl-1,3,4-thiadiazol-2-yl)piperazin-1-yl]pyrazolo[1,5-a]pyridine-5-sulfonamide], for which the IC50 is less than 1 µM in the test on Kuramochi cells and less than 0.1 µM in test [1].

`CC1(NS(=O)(=O)c2cc(N3CCC4(CC3)COC4)n3ncc(-c4nc5ncccc5s4)c3c2)CC1` [Example 21, N-(1-methylcyclopropyl)-7-(2-oxa-7-azaspiro[3.5]nonan-7-yl)-3-(thiazolo[4,5-b]pyridin-2-yl)pyrazolo[1,5-a]pyridine-5-sulfonamide]: the IC50 with Kuramochi cells is less than 1 µM; in test [1], less than 0.1 µM.

In the case of `N#CC1(NS(=O)(=O)c2cc(N3CCN(C(=O)N4CC[C@H](F)C4)CC3)n3ncc(-c4nnc(C(F)F)s4)c3c2)CC1` [Example 22, (S)-N-(1-cyanocyclopropyl)-3-(5-(difluoromethyl)-1,3,4-thiadiazol-2-yl)-7-(4-(3-fluoropyrrolidine-1-carbonyl)piperazin-1-yl)pyrazolo[1,5-a]pyridine-5-sulfonamide], the figures for the IC50 (in the test on Kuramochi cells; in test [1]) were less than 1 µM and less than 0.1 µM, respectively.

Regarding `N#CC1(c2nnc(-c3cnn4c(N5CCC6(CC5)COC6)cc(S(=O)(=O)NC5(C(F)F)CC5)cc34)s2)CC1` [Example 23, 3-[5-(1-cyanocyclopropyl)-1,3,4-thiadiazol-2-yl]-N-[1-(difluoromethyl)cyclopropyl]-7-(2-oxa-7-azaspiro[3.5]nonan-7-yl)pyrazolo[1,5-a]pyridine-5-sulfonamide], the half-maximal inhibitory concentration (IC50) with Kuramochi cells is less than 1 µM; in test [1], less than 0.1 µM.

For the molecule `Cc1nnc(N2CCN(c3cc(S(=O)(=O)NC4(C#N)CC4)cc4c(-c5nnc(C(F)F)s5)cnn34)CC2)o1` [Example 24, N-(1-cyanocyclopropyl)-3-[5-(difluoromethyl)-1,3,4-thiadiazol-2-yl]-7-[4-(5-methyl-1,3,4-oxadiazol-2-yl)piperazin-1-yl]pyrazolo[1,5-a]pyridine-5-sulfonamide], the values for the IC50 (in the test on Kuramochi cells; in test [1]) were less than 1 µM and less than 0.1 µM, respectively.

For the molecule `C#CC1(NS(=O)(=O)c2cc(N3CCN(C(=O)N4CC[C@H](O)C4)CC3)c3cnn(-c4nnc(C(F)F)s4)c3c2)CC1` [Example 26, 1-[5-(difluoromethyl)-1,3,4-thiadiazol-2-yl]-N-(1-ethynylcyclopropyl)-4-[4-[(3S)-3-hydroxypyrrolidine-1-carbonyl]piperazin-1-yl]indazole-6-sulfonamide], the results for the IC50 (with Kuramochi cells; in test [1]) were less than 1 µM and less than 0.1 µM, respectively.

On to `CC(=O)N1CCN(c2cc(S(=O)(=O)NC3(C)CC3)cc3c2cnn3-c2nc3c(s2)C(=O)COC3)CC1` [Example 28, 4-(4-acetylpiperazin-1-yl)-N-(1-methylcyclopropyl)-1-(7-oxo-6,7-dihydro-4H-pyrano[3,4-d]thiazol-2-yl)-1H-indazole-6-sulfonamide], for which the concentration for half-maximal inhibition (IC50) in the test on Kuramochi cells was more than 5 µM; in test [1], 0.1 to 0.5 µM.

Turning to `CC1(NS(=O)(=O)c2cc(-n3cc(C4(O)CCC4)cn3)c3cnn(-c4nnc(C5(O)CCC5)s4)c3c2)CC1` [Example 31, 4-[4-(1-hydroxycyclobutyl)pyrazol-1-yl]-1-[5-(1-hydroxycyclobutyl)-1,3,4-thiadiazol-2-yl]-N-(1-methylcyclopropyl)indazole-6-sulfonamide], the half-inhibitory concentration (IC50) was in the range of 1 to 5 µM in the test on Kuramochi cells and 0.1 to 0.5 µM in test [1].

With `N#CC1(c2nnc(-n3ncc4c(N5CCC6(CC5)COC6)cc(S(=O)(=O)NC5(C(F)F)CC5)cc43)s2)CC1` [Example 32, 1-(5-(1-cyanocyclopropyl)-1,3,4-thiadiazol-2-yl)-N-(1-(difluoromethyl)cyclopropyl)-4-(2-oxa-7-azaspiro[3.5]nonan-7-yl)-1H-indazole-6-sulfonamide], the results for the half-inhibitory concentration (IC50) (in the test on Kuramochi cells; in test [1]) were less than 1 µM and less than 0.1 µM, respectively.

Turning to `CC1(NS(=O)(=O)c2cc(-n3cc(C4(C#N)CC4)cn3)c3cnn(-c4nnc(C5(O)CCC5)s4)c3c2)CC1` [Example 33, 4-(4-(1-cyanocyclopropyl)-1H-pyrazol-1-yl)-1-(5-(1-hydroxycyclobutyl)-1,3,4-thiadiazol-2-yl)-N-(1-methylcyclopropyl)-1H-indazole-6-sulfonamide], the concentration for half-maximal inhibition (IC50) lay within 1 to 5 µM in the test on Kuramochi cells and 0.1 to 0.5 µM in test [1].
